Structures are written as SMILES. Bridge positions count the residues as written; N and C are the ends. Square brackets hold non-standard residues; d marks the D form. Peptide text beside a SMILES is read from it. * marks the point of attachment. 5FAM = O=C1OC2(c3ccc(O)cc3Oc3cc(O)ccc32)c2ccc(C(=O)*)cc21; Phe(3,4-F2) = N[C@@H](Cc1ccc(F)c(F)c1)C(=O)O; Phe(4-F) = N[C@@H](Cc1ccc(F)cc1)C(=O)O; Cha = N[C@@H](CC1CCCCC1)C(=O)O; AEEA = NCCOCCOCC(=O)O

This assay deals with DDE (fibrin-derived polypeptide) (Homo sapiens, UniProt P02671+P02675+P02679). Description: Direct binding fluorescence polarization (FP) assay using 5-carboxyfluorescein labeled peptides. The settings on record: 20 nM CF5-labeled peptide, serial dilutions of DDE, anisotropy read at 485 nm; read-out: KD (μM) Direct Binding (n = 2). As for the experimental part: Assay of Fibrin Binding Peptides by Direct Binding Fluorescence Polarization (FP) Procedure using 5-Carboxyfluoresein Labeled Peptides
Chain of DDE (fibrin-derived polypeptide) (P02671 124-216): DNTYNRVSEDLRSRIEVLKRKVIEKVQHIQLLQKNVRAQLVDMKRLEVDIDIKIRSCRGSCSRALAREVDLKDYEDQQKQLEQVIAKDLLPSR
Chain of DDE (fibrin-derived polypeptide) (P02675 164-491): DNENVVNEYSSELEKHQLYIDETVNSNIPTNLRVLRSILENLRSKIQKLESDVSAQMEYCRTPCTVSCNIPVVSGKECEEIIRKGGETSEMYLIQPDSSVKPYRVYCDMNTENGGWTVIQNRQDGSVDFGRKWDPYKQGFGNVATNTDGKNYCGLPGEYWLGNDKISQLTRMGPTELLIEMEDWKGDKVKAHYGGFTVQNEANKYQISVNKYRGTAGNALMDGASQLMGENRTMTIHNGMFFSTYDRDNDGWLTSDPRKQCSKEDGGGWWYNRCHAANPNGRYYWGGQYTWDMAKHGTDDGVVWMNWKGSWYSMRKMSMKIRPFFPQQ
Chain of DDE (fibrin-derived polypeptide) (P02679 114-432): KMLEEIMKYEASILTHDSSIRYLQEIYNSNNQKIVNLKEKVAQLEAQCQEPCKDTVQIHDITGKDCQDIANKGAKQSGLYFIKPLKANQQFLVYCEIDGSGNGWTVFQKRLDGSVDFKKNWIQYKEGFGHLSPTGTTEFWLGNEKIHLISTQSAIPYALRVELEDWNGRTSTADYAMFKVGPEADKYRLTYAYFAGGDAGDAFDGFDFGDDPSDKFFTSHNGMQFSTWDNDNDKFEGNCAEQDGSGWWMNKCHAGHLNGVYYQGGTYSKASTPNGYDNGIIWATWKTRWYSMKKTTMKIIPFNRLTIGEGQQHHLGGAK
Chain of DDE (fibrin-derived polypeptide) (P02671 36-97): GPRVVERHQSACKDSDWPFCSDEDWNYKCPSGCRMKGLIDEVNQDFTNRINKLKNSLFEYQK
Chain of DDE (fibrin-derived polypeptide) (P02675 45-152): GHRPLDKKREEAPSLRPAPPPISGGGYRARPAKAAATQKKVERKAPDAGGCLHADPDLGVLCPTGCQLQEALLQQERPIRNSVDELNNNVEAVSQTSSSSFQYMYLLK
Chain of DDE (fibrin-derived polypeptide) (P02679 27-88): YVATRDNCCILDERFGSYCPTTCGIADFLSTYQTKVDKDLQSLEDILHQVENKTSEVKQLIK
Protocol • 1. Prepare 1 mL of 40 nM solution of 5-carboxyfluorescein-labeled peptide in HEPES dilution buffer (HDB) with 0.01% Tween. • HDB (10 mM HEPES, 150 mM […], 2 mM CaCl2) • 2. Dilute the 40 nM solution to obtain 1 ml of a 20 nM solution of the test 5-carboxyfluorescein-labeled peptide. • 3. Prepare a solution of DDE at a concentration that will be approximately 5-10 fold greater than the expected KD. For the described assay an 8 μM concentration of DDE was prepared. • 4. Mix equal volumes of the DDE solution with the 40 nM peptide solution. • 5. Prepare serial dilutions of DDE in a solution consisting of the binding buffer with 0.01% Tween20 and 20 nM of the 5-carboxyfluorescein-labeled peptide. • 6. Make dilutions as shown in the following table in a Labsystems 384-well microplate and mix by repeated aspiration and dispensing of the solution into the wells. • 7. Centrifuge the plate at 2000 RPM for 5 minutes to remove air pockets in the wells. • 8. Read in Tecan Polarion Plate Reader at 485 nm to obtain the anisotropy value.
The anisotropy (in mP—millipolarization units) vs the logarithm of the concentration (micromoles/liter) of the receptor concentration is graphed. The dissociation constant is obtained at the midpoint of the curve whose extrema are Afree and Abound where Afree is the anisotropy of the free peptide and Abound is the anisotropy of the fully bound peptide. The theory, methods of operation and mathematical analysis is described in, for example, the following reference: Fluorescence Polarization Technical Resource Guide Technical Resource Guide 4th Edn. Invitrogen Corporation•501 Charmany Drive•Madison, Wis. 53719 USA. Particularly, the mathematical analysis of the data and obtaining binding constants is described in Chapter 8: Analysis of FP Binding Data pp 8-2-8-7.

For the compound `CC(=O)N[C@@H](Cc1c[nH]c2ccccc12)C(=O)N[C@@H](CCC(N)=O)C(=O)N1CCC[C@H]1C(=O)N[C@H]1CSSC[C@@H](C(=O)N[C@@H](Cc2c[nH]c3ccccc23)C(=O)N[C@@H](CC(=O)O)C(=O)N2CCC[C@H]2C(=O)NCC(=O)NCC(=O)NCC(=O)N[C@@H](CCCCNC(=O)c2ccc3c(c2)C(=O)OC32c3ccc(O)cc3Oc3cc(O)ccc32)C(N)=O)NC(=O)[C@H](Cc2ccccc2)NC(=O)[C@H]([C@@H](C)O)NC(=O)[C@H](Cc2c[nH]c3ccccc23)NC(=O)[C@H](CO)NC(=O)[C@H](CCC(=O)O)NC(=O)[C@H](Cc2c[nH]c3ccccc23)NC(=O)[C@@H]2CCCN2C1=O` [Seq000-CF5, reference compound] (Ac-WQPCPWESWTFCWDPGGGK(5FAM)-NH2; disulfide 4-12), the Kd turned out to be 0.39 µM.

On to `CC(=O)NCC(=O)N1CCC[C@H]1C(=O)N1CCC[C@H]1C(=O)NCC(=O)N[C@@H](Cc1c[nH]c2ccccc12)C(=O)N[C@@H](CCC(N)=O)C(=O)N1CCC[C@H]1C(=O)N[C@H]1CSSC[C@@H](C(=O)N[C@@H](Cc2c[nH]c3ccccc23)C(=O)N[C@@H](CC(=O)O)C(=O)N2CCC[C@H]2C(=O)NCC(=O)NCC(=O)NCC(=O)N[C@@H](CCCCNC(=O)c2ccc3c(c2)C(=O)OC32c3ccc(O)cc3Oc3cc(O)ccc32)C(N)=O)NC(=O)[C@H](Cc2ccccc2)NC(=O)[C@H]([C@@H](C)O)NC(=O)[C@H](Cc2c[nH]c3ccccc23)NC(=O)[C@H](CO)NC(=O)[C@H](CCC(=O)O)NC(=O)[C@H](Cc2c[nH]c3ccccc23)NC(=O)[C@@H]2CCCN2C1=O` [Seq014-CF5] (Ac-GPPGWQPCPWESWTFCWDPGGGK(5FAM)-NH2; disulfide 8-16), for which the Kd worked out at 0.25 µM.

Turning to `CC(=O)NCC(=O)NCC(=O)N[C@@H](CCCNC(=N)N)C(=O)NCC(=O)N[C@@H](Cc1c[nH]c2ccccc12)C(=O)N[C@@H](CCC(N)=O)C(=O)N1CCC[C@H]1C(=O)N[C@H]1CSSC[C@@H](C(=O)N[C@@H](Cc2c[nH]c3ccccc23)C(=O)N[C@@H](CC(=O)O)C(=O)N2CCC[C@H]2C(=O)NCC(=O)NCC(=O)NCC(=O)N[C@@H](CCCCNC(=O)c2ccc3c(c2)C(=O)OC32c3ccc(O)cc3Oc3cc(O)ccc32)C(N)=O)NC(=O)[C@H](Cc2ccccc2)NC(=O)[C@H]([C@@H](C)O)NC(=O)[C@H](Cc2c[nH]c3ccccc23)NC(=O)[C@H](CO)NC(=O)[C@H](CCC(=O)O)NC(=O)[C@H](Cc2c[nH]c3ccccc23)NC(=O)[C@@H]2CCCN2C1=O` [Seq015-CF5] (Ac-GGRGWQPCPWESWTFCWDPGGGK(5FAM)-NH2; disulfide 8-16), the Kd is 0.29 µM.

Turning to `CC(=O)NCC(=O)N[C@@H](Cc1c[nH]c2ccccc12)C(=O)N[C@@H](CCC(N)=O)C(=O)N1CCC[C@H]1C(=O)N[C@H]1CSSC[C@@H](C(=O)N[C@@H](Cc2c[nH]c3ccccc23)C(=O)N[C@@H](CC(=O)O)C(=O)N2CCC[C@H]2C(=O)NCC(=O)NCC(=O)NCC(=O)N[C@@H](CCCCNC(=O)c2ccc3c(c2)C(=O)OC32c3ccc(O)cc3Oc3cc(O)ccc32)C(N)=O)NC(=O)[C@H](Cc2ccccc2)NC(=O)[C@H]([C@@H](C)O)NC(=O)[C@H](Cc2c[nH]c3ccccc23)NC(=O)[C@H](CO)NC(=O)[C@H](CCC(=O)O)NC(=O)[C@H](Cc2c[nH]c3ccccc23)NC(=O)[C@@H]2CCCN2C1=O` [Seq016-CF5] (Ac-GWQPCPWESWTFCWDPGGGK(5FAM)-NH2; disulfide 5-13), the Kd was determined as 0.23 µM.

On to `CC(=O)N[C@@H](CO)C(=O)NCC(=O)N[C@@H](CO)C(=O)NCC(=O)NCCOCCOCC(=O)N[C@@H](Cc1c[nH]c2ccccc12)C(=O)N[C@@H](CCC(N)=O)C(=O)N1CCC[C@H]1C(=O)N[C@H]1CSSC[C@@H](C(=O)N[C@@H](Cc2c[nH]c3ccccc23)C(=O)N[C@@H](CC(=O)O)C(=O)N2CCC[C@H]2C(=O)NCC(=O)NCC(=O)NCC(=O)N[C@@H](CCCCNC(=O)c2ccc3c(c2)C(=O)OC32c3ccc(O)cc3Oc3cc(O)ccc32)C(N)=O)NC(=O)[C@H](Cc2ccccc2)NC(=O)[C@H]([C@@H](C)O)NC(=O)[C@H](Cc2c[nH]c3ccccc23)NC(=O)[C@H](CO)NC(=O)[C@H](CCC(=O)O)NC(=O)[C@H](Cc2c[nH]c3ccccc23)NC(=O)[C@@H]2CCCN2C1=O` [Seq017-CF5] (Ac-SGSG[AEEA]WQPCPWESWTFCWDPGGGK(5FAM)-NH2; disulfide 9-17), for which the Kd is 0.45 µM.

Turning to `CC(=O)N[C@@H](Cc1c[nH]c2ccccc12)C(=O)N[C@@H](CCC(N)=O)C(=O)N1CCC[C@H]1C(=O)N[C@H]1CSSC[C@@H](C(=O)N[C@@H](Cc2c[nH]c3ccccc23)C(=O)N[C@@H](CC(=O)O)C(=O)N2CCC[C@H]2C(=O)NCC(=O)NCC(=O)NCC(=O)N[C@@H](CCCCNC(=O)c2ccc3c(c2)C(=O)OC32c3ccc(O)cc3Oc3cc(O)ccc32)C(N)=O)NC(=O)[C@H](CC2CCCCC2)NC(=O)[C@H]([C@@H](C)O)NC(=O)[C@H](Cc2c[nH]c3ccccc23)NC(=O)[C@H](CO)NC(=O)[C@H](CCC(=O)O)NC(=O)[C@H](Cc2c[nH]c3ccccc23)NC(=O)[C@@H]2CCCN2C1=O` [Seq018-CF5, Ac-WQPC*PWESWT-Cha-C*WDPGGGK(CF5)-NH2] (Ac-WQPCPWESWT[Cha]CWDPGGGK(5FAM)-NH2; disulfide 4-12), the Kd stood at 0.2 µM.

On to `CC(=O)N[C@@H](Cc1c[nH]c2ccccc12)C(=O)N[C@@H](CCC(N)=O)C(=O)N1CCC[C@H]1C(=O)N[C@H]1CSSC[C@@H](C(=O)N[C@@H](Cc2c[nH]c3ccccc23)C(=O)N[C@@H](CC(=O)O)C(=O)N2CCC[C@H]2C(=O)NCC(=O)NCC(=O)NCC(=O)N[C@@H](CCCCNC(=O)c2ccc3c(c2)C(=O)OC32c3ccc(O)cc3Oc3cc(O)ccc32)C(N)=O)NC(=O)[C@H](Cc2ccc(F)cc2)NC(=O)[C@H]([C@@H](C)O)NC(=O)[C@H](Cc2c[nH]c3ccccc23)NC(=O)[C@H](CO)NC(=O)[C@H](CCC(=O)O)NC(=O)[C@H](Cc2c[nH]c3ccccc23)NC(=O)[C@@H]2CCCN2C1=O` [Seq019-CF5, Ac-WQPC*PWESWT-Ffe4-C*WDPGGGK(CF5)-NH2] (Ac-WQPCPWESWT[Phe(4-F)]CWDPGGGK(5FAM)-NH2; disulfide 4-12), for which the Kd worked out at 1.02 µM.

Take `CC(=O)N[C@@H](Cc1c[nH]c2ccccc12)C(=O)N[C@@H](CCC(N)=O)C(=O)N1CCC[C@H]1C(=O)N[C@H]1CSSC[C@@H](C(=O)N[C@@H](Cc2c[nH]c3ccccc23)C(=O)N[C@@H](CC(=O)O)C(=O)N2CCC[C@H]2C(=O)NCC(=O)NCC(=O)NCC(=O)N[C@@H](CCCCNC(=O)c2ccc3c(c2)C(=O)OC32c3ccc(O)cc3Oc3cc(O)ccc32)C(N)=O)NC(=O)[C@H](Cc2ccc(F)c(F)c2)NC(=O)[C@H]([C@@H](C)O)NC(=O)[C@H](Cc2c[nH]c3ccccc23)NC(=O)[C@H](CO)NC(=O)[C@H](CCC(=O)O)NC(=O)[C@H](Cc2c[nH]c3ccccc23)NC(=O)[C@@H]2CCCN2C1=O` [Seq020-CF5, Ac-WQPC*PWESWT-F34fe-C*WDPGGGK(CF5)-NH2] (Ac-WQPCPWESWT[Phe(3,4-F2)]CWDPGGGK(5FAM)-NH2; disulfide 4-12): the Kd stood at 0.7 µM.
